Key:
[1] = molecular target: T1, human prostaglandin transporter (hPGT) (Homo sapiens, UniProt Q92959); assay: Inhibition of hPGT-mediated tracer PGE2 uptake in transfected HeLa cells; type: cell-based
[2] = molecular target: T1, human prostaglandin transporter (hPGT); assay: Timed uptake of tracer 3[H]-prostaglandins into HeLa cells expressing clone 3 (hPGT); type: cell-based; conditions: for 2-minute rank-order of uptakes: 2 minutes, 27° C., tracer 0.6-1.0 nM; for difference between transport rates: 10 and 20 minutes
rat PGT [3] = conditions: reference 36; cited from earlier work
rat PGT [4] = assay: Tracer prostaglandin transport by rat PGT re-expressed in HeLa cells; type: cell-based; conditions: data not shown
[5] = HeLa, 10 min, read-out: percent of the control 10-min tracer PGE2 uptake

Row | Compound | 2-minute rank-order of uptakes [2] | difference between transport rates [2] | remaining activity at 10 µM [1, 5] [%] | remaining activity at 100 µM [1, 5] [%] | remaining activity at 0.1 µM [1, 5] [%] | further results
1 | CCCCC[C@H](O)/C=C/[C@H]1OC(O)C[C@H](O)[C@@H]1C/C=C\CCCC(=O)O (stereo partly shown) [TxB2] | PGE2 >PGE1>PGF2α >PGD2 >TxB2 |  |  |  |  | remaining activity at 0.5 µM [1, 5]: 26.7 ± 0.1%; transport rate relative to PGE2 or PGF2α ([2]; hPGT, FIG. 2): about half that of PGE2 or PGF2α; transport rate relative to PGE2 or PGF2α (rat PGT [3]): about half that of PGE2 or PGF2α
2 | CCCCC[C@H](O)/C=C/[C@H]1[C@H](O)CC(=O)[C@@H]1C/C=C\CCCC(=O)O [PGE2] | PGE2 >PGE1>PGF2α >PGD2 >TxB2 | essentially no difference |  |  |  | 
3 | CCCN(CCC)S(=O)(=O)c1ccc(C(=O)O)cc1 [Probenecid] |  |  | 104 ± 5.2 | 92.8 ± 2 |  | potency as inhibitor of hPGT (in words) [1]: much less effective
4 | CCCCC[C@H](O)/C=C/[C@@H]1[C@@H](C/C=C\CCCC(=O)O)[C@@H](O)C[C@H]1O [PGF2α] | PGE2 >PGE1>PGF2α >PGD2 >TxB2 | essentially no difference |  |  | 45 ± 1.3 | 
5 | CC#CCC(C)[C@H](O)/C=C/[C@@H]1[C@H]2C/C(=C/CCCC(=O)O)C[C@H]2C[C@H]1O (stereo partly shown) [iloprost] |  |  |  |  |  | transport above baseline ([2]; 3[H]-iloprost 7.9 nM, data not shown): not transported above baseline
6 | NS(=O)(=O)c1cc(C(=O)O)c(NCc2ccco2)cc1Cl [Furosemide] |  |  | 91.5 ± 3.3 | 63.3 ± 1.7 |  | 
7 | CCCCC[C@H](O)/C=C/[C@H]1C(=O)C[C@H](O)[C@@H]1C/C=C\CCCC(=O)O [PGD2] | PGE2 >PGE1>PGF2α >PGD2 >TxB2 | essentially no difference |  |  | 47.9 ± 0.9 | transport rate of tracer relative to PGE2 (rat PGT [4]): at a rate equivalent to that of PGE2
8 | COc1ccc2c(c1)c(CC(=O)O)c(C)n2C(=O)c1ccc(Cl)cc1 [Indomethacin] |  |  | 114 ± 3.8 | 82.5 ± 1 |  | potency as inhibitor of hPGT (in words) [1]: much less effective
9 | CCCCC[C@H](O)/C=C/[C@H]1[C@H](O)CC(=O)[C@@H]1CCCCCCC(=O)O [PGE1] | PGE2 >PGE1>PGF2α >PGD2 >TxB2 | essentially no difference |  |  | 50.8 ± 3.4 | 

From patent US5792851A, “Human prostaglandin transporter” (Albert Einstin College of Medicine of Yeshiva University, a …, priority 1996, dated 1998)
